pIC50: −log10 of the molar value.
Biological target: human IDO1 (Homo sapiens, UniProt P14902)
Assay: Assessment of human IDO-1 inhibitory activity in HEK cells (human IDO1/HEK293 cells, kynurenine read-out with Ehrlich reagent, absorbance 490 nm)
Format: cell-based
Parameters: expressed in transfected cells
Settings: HEK Human IDO-1 cellular assay
Procedure, shortened: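 HEK293 cells stably expressing human IDO1 were seeded at 10,000 per well in phenol red-free RPMI with 10% FBS, treated with compound for 20 h at 37 °C. Kynurenine was measured after TCA (0.2% final) and 30 min at 50 °C, using Ehrlich reagent, A490. IC50 normalised to DMSO (0%) and 500 nM reference standard (100%).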

Sequence of human IDO1 (P14902 whole entry): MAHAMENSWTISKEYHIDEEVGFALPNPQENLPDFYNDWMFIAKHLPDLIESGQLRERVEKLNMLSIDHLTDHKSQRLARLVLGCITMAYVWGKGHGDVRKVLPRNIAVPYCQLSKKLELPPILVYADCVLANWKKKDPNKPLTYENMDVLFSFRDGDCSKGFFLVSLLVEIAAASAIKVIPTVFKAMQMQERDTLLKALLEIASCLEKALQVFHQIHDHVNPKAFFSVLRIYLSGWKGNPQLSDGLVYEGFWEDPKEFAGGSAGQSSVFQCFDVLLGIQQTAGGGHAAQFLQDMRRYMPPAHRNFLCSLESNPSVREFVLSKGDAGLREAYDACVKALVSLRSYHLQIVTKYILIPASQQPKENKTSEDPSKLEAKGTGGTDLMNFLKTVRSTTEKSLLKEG

Row | Compound | pIC50
1 | CC[C@H](CC(=O)O)c1ccc(N(CC(C)C)C2CCS(=O)(=O)CC2)c(NC(=O)Nc2ccc(OC)cc2F)c1 (single isomer, unassigned) [Example 211] | < 7.30
2 | CCOc1ccc(Nc2cc(C(CC)CC(=O)O)cc(F)c2N(CC(C)C)CC(C)C)cc1 (single isomer, unassigned) [Example 97, 3-(4-(diisobutylamino)-3-((4-ethoxyphenyl)amino)-5-fluorophenyl)pentanoic acid] | > 7.30
3 | CCC(CC(=O)O)c1cc(F)c(N(CC(C)C)CC(C)C)c(NC(=O)c2ccc(Cl)cc2)c1 (single isomer, unassigned) [Example 127, 3-(3-(4-Chlorobenzamido)-4-(diisobutylamino)-5-fluorophenyl)pentanoic acid] | < 7.30
4 | CC[C@@H](CC(=O)O)c1ccc(N(CC(C)(C)O)C2CCCCC2)c(Nc2ccc(C#N)cc2)c1 (single isomer, unassigned) [Example 227] | > 8.30
5 | CC[C@@H](CC(=O)O)c1ccc(N(CC(C)(C)O)C2CCOCC2)c(Nc2ccc(Cl)c(OCC(F)(F)F)c2)c1 (single isomer, unassigned) [Example 200] | > 7.30
6 | CC[C@H](CC(=O)O)c1ccc(N(CC)C2CCCCC2)c(Nc2ccc(Cl)cc2)c1 (single isomer, unassigned) [Example 285] | > 8.30
7 | CC[C@H](CC(=O)O)c1ccc(N(CC(C)(C)O)C2CCOCC2)c(NC(=O)Nc2ccc(C)cc2)c1 (single isomer, unassigned) [Example 208] | < 7.30
8 | CC[C@@H](CC(=O)O)c1ccc(N2CCOC[C@@H]2C(C)C)c(Nc2ccc3nc(C)sc3c2)c1 (single isomer, unassigned) [Example 80] | < 7.30
9 | CC[C@@H](CC(=O)O)c1ccc(N2CCOC[C@@H]2C(C)C)c(Nc2ccc(F)cc2)c1 (single isomer, unassigned) [Example 84] | > 7.30
10 | CCC(CC(=O)O)c1cc(F)c(N(CC(C)C)CC(C)C)c(Nc2ccc(F)cc2)c1 (single isomer, unassigned) [Example 100, 3-(4-(diisobutylamino)-3-fluoro-5-((4-fluorophenyl)amino)phenyl)pentanoic acid] | > 8.30
11 | CCOc1ccc(Nc2cc(C(CC)CC(=O)O)ccc2N(CC(C)C)C2CCCCC2)cc1 (single isomer, unassigned) [Example 313, 3-(4-(cyclohexyl(isobutyl)amino)-3-((4-ethoxyphenyl)amino)phenyl)pentanoic acid] | > 8.30
12 | CC[C@@H](CC(=O)O)c1ccc(N(CC(C)(C)O)C2CCCCC2)c(Nc2ccc(F)cc2)c1 (single isomer, unassigned) [Example 225] | > 8.30
13 | CC[C@@H](CC(=O)O)c1ccc(N(CC(C)C)C2CCS(=O)(=O)CC2)c(NC(=O)Nc2ccc(C)cc2)c1 (single isomer, unassigned) [Example 210] | < 7.30
14 | CCC(CC(=O)O)c1cc(F)c(N(CC(C)C)CC(C)C)c(Nc2ccc(OCC(F)(F)F)cc2)c1 (single isomer, unassigned) [Example 98, 3-(4-(diisobutylamino)-3-fluoro-5-((4-(2,2,2-trifluoroethoxy)phenyl)amino)phenyl)pentanoic acid] | < 7.30
15 | CCC(CC(=O)O)c1cc(F)c(N(CC(C)C)CC(C)C)c(NC(=O)Cc2ccc(C)cc2)c1 (single isomer, unassigned) [980-1] | > 8.30
16 | CC[C@H](CC(=O)O)c1ccc(N(CC2CC2)CC(C)(C)O)c(Nc2ccc(Cl)cc2)c1 (single isomer, unassigned) [Example 271] | > 8.30

Second part, the compound after the results:

Row | pIC50 | Compound
17 | > 7.30 | CCOc1ccc(NC(=O)Nc2cc(C(COC)CC(=O)O)cc(F)c2N(CC(C)C)C2CCCCC2)cc1 (single isomer, unassigned) [Example 1153, 3-(4-(cyclohexyl(isobutyl)amino)-3-(3-(4-ethoxyphenyl)ureido)-5-fluorophenyl)-4-methoxybutanoic acid]
18 | > 8.30 | 3-(4-(isobutyl(tetrahydro-2H-pyran-4-yl)amino)-3-(3-(4-phenoxyphenyl)ureido)phenyl)butanoic acid [Example 959]
19 | > 7.30 | COCC(CC(=O)O)c1cc(F)c(N(CC(C)C)CC(C)C)c(Nc2ccc3c(c2)OC(F)(F)O3)c1 (single isomer, unassigned) [Example 927, 3-(3-((2,2-difluorobenzo[d] [1,3]dioxol-5-yl)amino)-4-(diisobutylamino)-5-fluorophenyl)-4-methoxybutanoic acid.]
20 | > 7.30 | CCOc1ncc(Nc2cc(C(CC)CC(=O)O)ccc2N(CC2CC2)C(C)C)cn1 (single isomer, unassigned) [Example 718, 3-(4-((cyclopropylmethyl) (isopropyl)amino)-3-((2-ethoxypyrimidin-5-yl)amino)phenyl)pentanoic acid]
21 | > 8.30 | COCC(CC(=O)O)c1cc(F)c(N(CC(C)C)CC(C)C)c(NC(=O)Nc2ccc(Cl)cc2F)c1 (single isomer, unassigned) [Example 1182, 3-(3-(3-(4-Chloro-2-fluorophenyl)ureido)-4-(diisobutylamino)-5-fluorophenyl)-4-methoxybutanoic acid]
22 | > 7.30 | CCC(CC(=O)O)c1ccc(N(CC(C)C)C2CCCCC2)c(Nc2ccc(Cl)c(OCC3CC3)c2)c1 (single isomer, unassigned) [Example 645, 3-(3-((4-chloro-3-(cyclopropylmethoxy)phenyl)amino)-4-(cyclohexyl (isobutyl)amino)phenyl) pentanoic acid]
23 | < 7.30 | CC[C@H](CC(=O)O)c1ccc(N2CCC[C@H]2C(C)(C)O)c(NC(=O)Nc2ccc(C)cc2)c1 (single isomer, unassigned) [Example 767]
24 | > 8.30 | CC[C@H](CC(=O)O)c1ccc(N(CC)C2CCOCC2)c(Nc2ccc(OCC3CC3)cc2)c1 (single isomer, unassigned) [Example 516]
25 | > 7.30 | CC[C@@H](CC(=O)O)c1ccc(N(CC)C2CCOCC2)c(NC(=O)Nc2ccc(OC)cc2)c1 (single isomer, unassigned) [Example 492]
26 | < 7.30 | CCOc1ccc(NC(=O)Nc2cc([C@@H](COC)CC(=O)O)ccc2N(CC)C2CCOCC2)cc1 (single isomer, unassigned) [Example 432]
27 | > 8.30 | COCC(CC(=O)O)c1ccc(N(CC(C)C)CC(C)C)c(NC(=O)Nc2ccc(Cl)cc2F)c1 (racemic) [Example 994, (+/−)-3-(3-(3-(4-Chloro-2-fluorophenyl)ureido)-4-(diisobutylamino)phenyl)-4-methoxybutanoic acid]
28 | < 7.30 | COCC(CC(=O)O)c1ccc(N(CC(C)C)C2CCOCC2)c(NC(=O)Nc2ccc(OC(F)(F)F)cc2)c1 (single isomer, unassigned) [Example 1211, 3-(4-(Isobutyl(tetrahydro-2H-pyran-4-yl)amino)-3-(3-(4-(trifluoromethoxy)phenyl)ureido)phenyl)-4-methoxybutanoic acid]
29 | < 7.30 | CCOc1ccc(NC(=O)Nc2cc(C(COC)CC(=O)O)ccc2N(CC(C)C)C2CCOCC2)c(F)c1 (single isomer, unassigned) [Example 1215, 3-(3-(3-(4-Ethoxy-2-fluorophenyl)ureido)-4-(isobutyl(tetrahydro-2H-pyran-4-yl)amino)phenyl)-4-methoxybutanoic acid]
30 | > 7.30 | CCOc1ncc(Nc2cc(C(C)CC(=O)O)ccc2N(CC)C2CCOCC2)cn1 (single isomer, unassigned) [Example 619, 3-(3-((2-ethoxypyrimidin-5-yl)amino)-4-(ethyl (tetrahydro-2H-pyran-4-yl)amino)phenyl)butanoic acid]
31 | < 7.30 | CC(CC(=O)O)c1ccc(N2C[C@@H](C)O[C@@H](C)C2)c(Nc2ccc(Cl)cc2)c1 (single isomer, unassigned) [Example 739]
32 | < 7.30 | COc1ncc(Nc2cc(C(C)(C)CC(=O)O)ccc2N2C[C@@H](C)O[C@@H](C)C2)cn1 [Example 735, 3-(4-((2S,6R)-2,6-dimethylmorpholino)-3-((2-methoxypyrimidin-5-yl)amino)phenyl)-3-methylbutanoic acid]
33 | > 8.30 | CCC(CC(=O)O)c1cc(NC(=O)Nc2ccc(C)cc2)c(N(CC(C)C)C2CCCCC2)cc1F (single isomer, unassigned) [Example 1106, 3-(4-(Cyclohexyl(isobutyl)amino)-2-fluoro-5-(3-(p-tolyl)ureido)phenyl)pentanoic acid]
34 | > 8.30 | CCC(CC(=O)O)c1cc(NC(=O)Nc2ccc(C)cc2)c(N(CC(C)C)CC(C)C)cc1F (single isomer, unassigned) [Example 1129, 3-(4-(Diisobutylamino)-2-fluoro-5-(3-(p-tolyl)ureido)phenyl)pentanoic acid]
35 | < 7.30 | CCC(CC(=O)O)c1ccc(N2CCC[C@H]2C(C)(C)O)c(NC(=O)Nc2ccc(Cl)cc2F)c1 (single isomer, unassigned) [Example 812]
36 | < 7.30 | COCC(CC(=O)O)c1ccc(N(CC(C)C)C2CCOCC2)c(NC(=O)Nc2ccc(OC)cc2F)c1 (single isomer, unassigned) [Example 1214, 3-(3-(3-(2-Fluoro-4-methoxyphenyl)ureido)-4-(isobutyl(tetrahydro-2H-pyran-4-yl)amino)phenyl)-4-methoxybutanoic acid]
37 | < 7.30 | CC[C@@H](CC(=O)O)c1ccc(N(CC)C2CCOCC2)c(NC(=O)Nc2ccc3c(c2)CS(=O)(=O)C3)c1 (single isomer, unassigned) [Example 496]
38 | < 7.30 | CC[C@@H](CC(=O)O)c1ccc(N(CC)C2CCOCC2)c(Nc2ccn3nccc3n2)c1 (single isomer, unassigned) [Example 468]
39 | > 7.30 | CCN(c1ccc(C(CC(=O)O)c2ccccc2)cc1Nc1ccc(Cl)cc1)C1CCOCC1 (single isomer, unassigned) [Example 590, 3-(3-((4-chlorophenyl)amino)-4-(ethyl(tetrahydro-2H-pyran-4-yl)amino)phenyl)-3-phenylpropanoic acid]
40 | > 8.30 | CCC(CC(=O)O)c1ccc(N2C[C@@H]3C[C@H]2CN3C(=O)OC(C)(C)C)c(Nc2ccc(C)cc2)c1 (single isomer, unassigned) [Example 445]

— US9790169B2, “IDO inhibitors” (BRISTOL-MYERS SQUIBB COMPANY, priority 2015, dated 2017)
